Here are results for 13 compounds from patent US7893077B2, “Bisaryl-sulfonamides” (Amgen Inc., priority 2004, dated 2011).

The assay has as its target T1, PPARγ (Homo sapiens, UniProt P37231).
T1 construct: made in house
T1 sequence (P37231 1-505): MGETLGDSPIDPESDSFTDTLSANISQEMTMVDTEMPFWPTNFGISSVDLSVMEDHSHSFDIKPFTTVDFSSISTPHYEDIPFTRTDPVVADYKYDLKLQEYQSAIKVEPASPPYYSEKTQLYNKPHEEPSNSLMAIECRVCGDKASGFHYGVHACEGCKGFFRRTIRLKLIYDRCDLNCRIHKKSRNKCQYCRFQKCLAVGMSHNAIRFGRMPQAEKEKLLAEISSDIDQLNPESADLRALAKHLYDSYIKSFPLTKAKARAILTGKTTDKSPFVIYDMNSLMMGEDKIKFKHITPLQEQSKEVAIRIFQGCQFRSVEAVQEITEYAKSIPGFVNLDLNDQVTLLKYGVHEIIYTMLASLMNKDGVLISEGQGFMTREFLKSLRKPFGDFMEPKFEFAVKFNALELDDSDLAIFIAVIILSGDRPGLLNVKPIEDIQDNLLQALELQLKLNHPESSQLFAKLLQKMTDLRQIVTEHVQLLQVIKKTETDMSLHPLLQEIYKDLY
In words: PPARγ ligand binding assay utilizing [3H]-BRL 49653 as the radioligand (filtration). To be noted: concentration required to reduce by 50% the specific binding of [3H]-BRL 49653. In a few lines: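 Displacement of 10 nM [3H]-BRL 49653 from PPARγ-GST fusion protein in Tris-HCl pH 8.0 buffer with KCl, DTT, BSA and NP-40, 15 min incubation, then glutathione-bead capture for 1 h. Bound radioactivity counted after filtration washes; IC50 is concentration giving 50% loss of specific binding, reported in ranges.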

Compound `O=C(c1cc(NS(=O)(=O)c2ccc(Cl)cc2Cl)ncc1Sc1ccc(S(=O)(=O)N2CCCCC2)cc1)C1CC1` [Compound 128, 2,4-dichloro-N-{4-cyclopropanecarbonyl-5-[4-(piperidine-1-sulfonyl)-phenylsulfanyl]-pyridin-2-yl}-benzenesulfonamide] returned an IC50 below 1000 nM.

`O=C(c1cc(NS(=O)(=O)c2ccc(C(F)(F)F)cc2Cl)ncc1Sc1ccc(S(=O)(=O)N2CCOCC2)cc1)C1CC1` [Compound 129, 2-Chloro-N-{4-cyclopropanecarbonyl-5-[4-(morpholine-4-sulfonyl)-phenylsulfanyl]-pyridin-2-yl}-4-trifluoromethyl-benzenesulfonamide] displayed a concentration for half-maximal inhibition (IC50) below 1000 nM.

Regarding `CCCCc1cc(NS(=O)(=O)c2ccc(C(F)(F)F)cc2Cl)nnc1Sc1ccc(S(=O)(=O)N2CCOCC2)cc1` [Compound 130, 3-(2′-chloro-4′-trifluoromethyl)phenylsulfonylamino-5-n-butyl-6-(4″-N-morpholinesulfonyl)phenylthiopyridazine], the half-inhibitory concentration (IC50) is below 1000 nM.

As to `CCCCc1cc(NS(=O)(=O)c2ccc(Cl)cc2Cl)nnc1Sc1ccc(S(=O)(=O)N2CCOCC2)cc1` [Compound 131, 3-(2′,4′-dichloro)phenylsulfonylamino-5-n-butyl-6-(4″-N-morpholinesulfonyl)phenylthiopyridazine], the IC50 is below 1000 nM.

For `CCCCc1cc(NS(=O)(=O)c2ccc(Cl)cc2Cl)nnc1Sc1ccc(S(=O)(=O)N2CCCCC2)cc1` [Compound 132, 3-(2′,4′-dichloro)phenylsulfonylamino-5-n-butyl-6-(4″-N-piperidinesulfonyl)phenylthiopyridazine], the IC50 was below 1000 nM.

Regarding `CCCCc1cc(NS(=O)(=O)c2ccc(Cl)cc2Cl)nnc1Sc1ccc(S(=O)(=O)C2CCCC2)cc1` [Compound 133, 3-(2′,4′-dichloro)phenylsulfonylamino-5-n-butyl-6-(4″-cyclopentanesulfonyl)phenylthiopyridazine], the IC50 was below 1000 nM.

In turn, `CCCCc1cc(NS(=O)(=O)c2ccc(C(F)(F)F)cc2Cl)nnc1Sc1ccc(S(=O)(=O)C2CCCC2)cc1` [Compound 134, 3-(2′-chloro-4′-trifluoromethyl)phenylsulfonylamino-5-n-butyl-6-(4″-cyclopentanesulfonyl)phenylthiopyridazine] registered an IC50 below 1000 nM.

The compound `CC(C)c1cc(NS(=O)(=O)c2ccc(C(F)(F)F)cc2Cl)nnc1Sc1ccc(S(=O)(=O)N2CCOCC2)cc1` [Compound 135, 3-(2′-chloro-4′-trifluoromethyl)phenylsulfonylamino-5-iso-propyl-6-(4″-N-morpholinesulfonyl)phenylthiopyridazine] gave a half-inhibitory concentration (IC50) below 10000 nM.

The compound `Cc1cc(NS(=O)(=O)c2ccc(C(F)(F)F)cc2Cl)nnc1Sc1ccc(S(=O)(=O)N2CCCCC2)cc1` [Compound 136, 2-Chloro-N-{5-methyl-6-[4-(piperidine-1-sulfonyl) -phenylsulfanyl]-pyridazin-3-yl}-4-trifluoromethyl-benzenesulfonamide] gave a half-inhibitory concentration (IC50) below 1000 nM.

For the compound `Cc1cc(Sc2ccc(S(=O)(=O)N3CCCCC3)cc2)nnc1NS(=O)(=O)c1ccc(C(F)(F)F)cc1Cl` [Compound 137, 2-Chloro-N-{4-methyl-6-[4-(piperidine-1-sulfonyl) -phenylsulfanyl]-pyridazin-3-yl}-4-trifluoromethyl-benzenesulfonamide], the half-maximal inhibitory concentration (IC50) is below 10000 nM.

`Cc1cc(S(=O)(=O)Nc2cc(C)c(Sc3ccc(S(=O)(=O)N4CCCCC4)cc3)nn2)c(Cl)cc1Cl` [Compound 138, 2,4-Dichloro-5-methyl-N-{5-methyl-6-[4-(piperidine-1-sulfonyl)-phenylsulfanyl]-pyridazin-3-yl}-benzenesulfonamide] came in with a half-maximal inhibitory concentration (IC50) below 1000 nM.

Regarding `Cc1cc(S(=O)(=O)Nc2nnc(Sc3ccc(S(=O)(=O)N4CCCCC4)cc3)cc2C)c(Cl)cc1Cl` [Compound 139, 2,4-Dichloro-5-methyl-N -{4-methyl-6-[4-(piperidine-1-sulfonyl)-phenylsulfanyl]-pyridazin-3-yl}-benzenesulfonamide], the IC50 is below 1000 nM.

`Cc1cc(S(=O)(=O)Nc2ccc(Sc3ccc(S(=O)(=O)N4CCCCC4)cc3)nn2)c(Cl)cc1Cl` [Compound 140, 2,4-Dichloro-5-methyl-N-{6-[4-(piperidine-1-sulfonyl) -phenylsulfanyl]-pyridazin-3-yl}-benzenesulfonamide] showed an IC50 below 1000 nM.

The term IC50 denotes the concentration that inhibits the measured activity by half. Lower therefore signals higher potency.
